Experimental data: patent publication US9353104B2, “Substituted pyridizinone derivatives as PDE10 inhibitors” (priority 2013, dated 2016)

biological target: human PDE10A2 (Homo sapiens (Human), UniProt Q9Y233); experiment: PDE10 fluorescence polarization (IMAP FP) inhibition assay; assay type: biochemical; details: human PDE10A2 lysate, FAM-labeled cAMP 50 nM, room temperature; read-out: PDE10A Ki
Protocol: The activity of the compounds in accordance with the present invention as PDE10 inhibitors may be readily determined without undue experimentation using a fluorescence polarization (FP) methodology that is well known in the art (Huang, W., et al., J. Biomol Screen, 2002, 7: 215). […] In a typical experiment the PDE10 inhibitory activity of the compounds of the present invention was determined in accordance with the following experimental method. PDE10A2 was amplified from human fetal brain cDNA (Clontech, Mountain View, Calif.) using a forward primer corresponding to nucleotides 56-77 of human PDE10A2 (Accession No. AF127480, Genbank Identifier 4894716), containing a Kozak consensus sequence, and a reverse primer corresponding to nucleotides 2406-2413 of human PDE10A2 (Accession No. AF127480, Genbank Identifier 4894716). Amplification with Easy-A polymerase (Stratagene, La Jolla, Calif.) was 95° C. for 2 minutes followed by thirty three cycles of 95° C. for 40 seconds, 55° C. for 30 seconds, and 72° C. for 2 minutes 48 seconds. Final extension was 72° C. for 7 minutes. The PCR product was TA cloned into pcDNA3.2-TOPO (Invitrogen, Carlsbad, Calif.) according to standard protocol. AD293 cells with 70-80% confluency were transiently transfected with human PDE10A2/pcDNA3.2-TOPO using Lipofectamine 2000 according to manufacturer specifications (Invitrogen, Carlsbad, Calif.). Cells were harvested 48 hours post-transfection and lysed by sonication (setting 3, 10×5 sec pulses) in a buffer containing 20 mM HEPES, 1 mM EDTA and protease inhibitor cocktail (Roche). Lysate was collected by centrifugation at 75,000×g for 20 minutes. Supernatant containing the cytoplasmic fraction was used for evaluation of PDE10A2 activity. The fluorescence polarization assay for cyclic nucleotide phosphodiesterases was performed using an IMAP® FP kit supplied by Molecular Devices, Sunnyvale, Calif. (product #R8139). IMAP® technology has been applied previously to phosphodiesterase assays (Huang, W., et al., J. Biomol Screen, 2002, 7: 215). Assays were performed at room temperature in 384-well microtiter plates with an incubation volume of 20.2 μL. Solutions of test compounds were prepared in DMSO and serially diluted with DMSO to yield 8 μL of each of 10 solutions differing by 3-fold in concentration, at 32 serial dilutions per plate. 100% inhibition is determined using a known PDE10 inhibitor, which can be any compound that is present at 5,000 times its Ki value in the assay described as follows, such as papaverine (see Siuciak, et al. Neuropharmacology (2006) 51:386-396; Becker, et al. Behav Brain Res (2008) 186(2):155-60; Threlfell, et al., J Pharmacol Exp Ther (2009) 328(3):785-795), 2-{4-[pyridin-4-yl-1-(2,2,2-trifluoroethyl)-1H-pyrazol-3-yl]phenoxymethyl}quinoline succinic acid or 2-[4-(1-methyl-4-pyridin-4-yl-1H-pyrazol-3-yl)-phenoxymethyl]quinoline succinic acid (see Schmidt, et al. J Pharmacol Exp Ther (2008) 325:681-690; Threlfell, et al., J Pharmacol Exp Ther (2009) 328(3): 785-795). 0% of inhibition is determined by using DMSO (1% final concentrations).
A Labcyte Echo 555 (Labcyte, Sunnyvale, Calif.) is used to dispense 200 nL from each well of the titration plate to the 384 well assay plate. A solution of enzyme (1/1600 dilution from aliquots; sufficient to produce 20% substrate conversion) and a separate solution of FAM-labeled cAMP PDE from Molecular Devices (product #R7506), at a final concentration of 50 nM are made in the assay buffer (10 mM Tris HCl, pH 7.2, 10 mM MgCl2, 0.05% NaN3 0.01% Tween-20, and 1 mM DTT). The enzyme and the substrate are then added to the assay plates in two consecutive additions of 10 μL, and then shaken to mix. The reaction is allowed to proceed at room temperature for 30 minutes. A binding solution is then made from the kit components, comprised of 80% Solution A, 20% Solution B and binding reagent at a volume of 1/600 the total binding solution.

human PDE10A2, sequence (Q9Y233 267-1055): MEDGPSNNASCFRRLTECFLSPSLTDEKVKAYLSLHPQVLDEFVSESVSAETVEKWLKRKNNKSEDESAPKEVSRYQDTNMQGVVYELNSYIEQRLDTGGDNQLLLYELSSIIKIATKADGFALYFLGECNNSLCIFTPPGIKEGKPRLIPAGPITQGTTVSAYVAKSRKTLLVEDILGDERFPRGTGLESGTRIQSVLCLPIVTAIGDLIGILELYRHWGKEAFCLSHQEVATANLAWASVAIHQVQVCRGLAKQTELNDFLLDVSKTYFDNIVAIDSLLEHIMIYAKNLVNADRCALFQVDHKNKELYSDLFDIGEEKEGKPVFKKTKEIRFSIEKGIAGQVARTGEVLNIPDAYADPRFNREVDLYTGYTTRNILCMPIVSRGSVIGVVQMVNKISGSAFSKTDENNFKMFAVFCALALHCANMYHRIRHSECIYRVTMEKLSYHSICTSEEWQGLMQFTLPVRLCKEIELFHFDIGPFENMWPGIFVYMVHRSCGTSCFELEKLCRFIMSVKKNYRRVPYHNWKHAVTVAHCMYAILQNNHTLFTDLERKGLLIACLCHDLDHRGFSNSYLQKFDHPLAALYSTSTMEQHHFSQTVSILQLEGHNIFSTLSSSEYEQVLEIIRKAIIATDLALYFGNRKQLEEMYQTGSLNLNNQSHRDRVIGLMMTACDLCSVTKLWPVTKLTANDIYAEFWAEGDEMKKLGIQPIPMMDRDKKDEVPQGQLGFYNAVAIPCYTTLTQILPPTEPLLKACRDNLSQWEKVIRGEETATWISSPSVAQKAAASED

Row | Ki [nM] | Compound
1 | 0.122 | COc1ccc([C@H]2C[C@@H]2COc2cc(NCc3ccnc(C)c3)c(=O)n(C)n2)nc1 [Example 62, 6-(((1S,2S)-2-(5-methoxy-pyridin-2-yl)cyclopropyl-)-methoxy)-2-methyl-4-(((2-methylpyridin-4-yl)methyl)amino)pyridazin-3(2H)-one]
2 | 2.15 | Cc1ncc(CNc2cc(OC[C@H]3C[C@@H]3c3nn(C)c4ccccc34)nn(C)c2=O)s1 [Example 109, 2-methyl-6-(((1S,2S)-2-(1-methyl-1H-indazol-3-yl)cyclopropyl)methoxy)-4-((2-methylthiazol-5-yl)methylamino)pyridazin-3(2H)-one]
3 | 0.782 | Cc1ccc(CNc2cc(OC[C@H]3C[C@@H]3c3ccc(F)cn3)nn(C)c2=O)nc1 [Example 16, 6-(((1S,2S)-2-(5-fluoropyridin-2-yl)cyclopropyl)methoxy)-2-methyl-4-((5-methylpyridin-2-yl)methylamino)pyridazin-3(2H)-one]
4 | 1.7 | COc1ccc([C@H]2C[C@@H]2COc2cc(NCc3cncnc3)c(=O)n(C)n2)nc1 [Example 63, 6-(((1S,2S)-2-(5-methoxy-pyridin-2-yl)cyclopropyl-)-methoxy)-2-methyl-4-((pyrimidin-5-ylmethyl)-amino)pyridazin-3(2H)one]
5 | 0.074 | COc1ccc(CNc2cc(OC[C@H]3C[C@@H]3c3ccc(C)cn3)nn(C)c2=O)cc1 [Example 8, 4-(4-methoxybenzylamino)-2-methyl-6-(((1S,2S)-2-(5-methylpyridin-2-yl)cyclopropyl)methoxy)-pyridazin-3(2H)-one]
6 | 0.138 | Cc1ccc([C@H]2C[C@@H]2COc2cc(NCc3ccnn3C)c(=O)n(C)n2)nc1 [Example 99, 2-methyl-4-(((1-methyl-1H-pyrazol-5-yl)methyl-)amino)-6-(((1S,2S)-2-(5-methylpyridin-2-yl)cyclo-propyl)methoxy)pyridazin-3(2H)-one]
7 | 1.4 | Cc1cnc(CNc2cc(OC[C@H]3C[C@@H]3c3nn(C)c4ccccc34)nn(C)c2=O)s1 [Example 112, 2-methyl-6-(((1S,2S)-2-(1-methyl-1H-indazol-3-yl)cyclopropyl)methoxy)-4-((5-methylthiazol-2-yl)methylamino)pyridazin-3(2H)-one]
8 | > 100 | Cc1nc(CNc2cc(OC[C@H]3C[C@@H]3c3ccn(C)n3)nn(C)c2=O)cs1 [Example 48]
9 | 0.039 | COc1ccc([C@H]2C[C@@H]2COc2cc(NCc3ccc(C)nn3)c(=O)n(C)n2)nc1 [Example 76, 6-(((1S,2S)-2-(5-methoxy-pyridin-2-yl)cyclopropyl-)-methoxy)-2-methyl-4-(((6-methylpyridazin-3-yl)methyl)amino)pyridazin-3(2H)-one]
10 | 1.58 | COc1ccc([C@H]2C[C@@H]2COc2cc(NCc3c(C)nn(C)c3Cl)c(=O)n(C)n2)nc1 [Example 39, 4-((5-chloro-1,3-dimethyl-1H-pyrazol-4-yl)methylamino)-6-(((1S,2S)-2-(5-methoxypyridin-2-yl)cyclopropyl)methoxy)-2-methylpyridazin-3(2H)-one]
11 | 0.38 | COc1ccc([C@H]2C[C@@H]2COc2cc(NCc3c(C)noc3C)c(=O)n(C)n2)nc1 [Example 59, 4-(((3,5-dimethylisoxazol-4-yl)methyl)amino)-6-(((1S,2S)-2-(5-methoxy-pyridin-2-yl)cyclopropyl-)-methoxy)-2-methyl-pyridazin-3(2H)-one]
12 | 32.3 | COc1ccc([C@H]2C[C@@H]2COc2cc(NCc3ncccc3C)c(=O)n(C)n2)nc1 [Example 73, 6-(((1S,2S)-2-(5-methoxypyridin-2-yl)cyclopropyl)methoxy)-2-methyl-4-(((3-methyl-pyridin-2-yl)methyl)-amino)pyridazin-3(2H)one]
13 | 0.004 | COc1ccc([C@H]2C[C@@H]2COc2nn(C)c(=O)c(NCc3nnc(C)s3)c2Br)nc1 [Example 140, 5-bromo-6-(((1S,2S)-2-(5-methoxypyridin-2-yl)cyclopropyl)methoxy)-2-methyl-4-((5-methyl-1,3,4-thiadiazol-2-yl)methyl-amino)pyridazin-3(2H)-one]
14 | 0.41 | COc1ccc([C@H]2C[C@@H]2COc2cc(NCc3ccc(C)c(C)n3)c(=O)n(C)n2)nc1 [Example 69, 4-(((5,6-dimethylpyridin-2-yl)methyl)amino)-6-(((1S,2S)-2-(5-methoxy-pyridin-2-yl)cyclopropyl-)-methoxy)-2-methyl-pyridazin-3(2H)-one]
15 | 0.476 | Cc1ccc([C@H]2C[C@@H]2COc2cc(NCc3c(Cl)c(C)nn3C)c(=O)n(C)n2)nc1 [Example 35, 4-((4-chloro-1,3-dimethyl-1H-pyrazol-5-yl)methylamino)-2-methyl-6-(((1S,2S)-2-(5-methylpyridin-2-yl)cyclopropyl)methoxy)-pyridazin-3(2H)-one]
16 | 0.048 | COc1ccc([C@H]2C[C@@H]2COc2cc(NCc3nc(C)c(C)s3)c(=O)n(C)n2)nc1 [Example 126, 4-((4,5-dimethylthiazol-2-yl)methylamino)-6-(((1S,2S)-2-(5-methoxy-pyridin-2-yl)cyclopropyl-)methoxy)-2-methyl-pyridazin-3(2H)-one]
17 | 0.049 | COc1ccc([C@H]2C[C@@H]2COc2cc(NCc3cncc(C)c3)c(=O)n(C)n2)nc1 [Example 67, 6-(((1S,2S)-2-(5-methoxypyridin-2-yl)cyclopropyl)methoxy)-2-methyl-4-(((5-methylpyridin-3-yl)methyl)amino)pyridazin-3(2H)-one]
18 | 2.8 | COc1ccc([C@H]2C[C@@H]2COc2cc(NCc3nc(C)nn3C)c(=O)n(C)n2)nc1 [Example 88, 4-(((1,3-dimethyl-1H-1,2,4-triazol-5-yl)methyl)amino)-6-(((1S,2S)-2-(5-methoxypyridin-2-yl)cyclopropyl)methoxy)-2-methylpyridazin-3(2H)-one]
19 | 75 | Cc1cc(C(=O)Nc2cc(OC[C@H]3C[C@@H]3c3ccn(C)n3)nn(C)c2=O)n(C)n1 [Example 103, 1,3-dimethyl-N-(2-methyl-6-(((1S,2S)-2-(1-methyl-1H-pyrazol-3-yl)cyclopropyl)methoxy)-3-oxo-2,3-dihydropyridazin-4-yl)-1H-pyrazole-5-carboxamide]
20 | 0.005 | Cc1cccc([C@H]2C[C@@H]2COc2cc(NCc3cc(C)nn3C)c(=O)n(C)n2)n1 [Example 116, 4-((1,3-dimethyl-1H-pyrazol-5-yl)methylamino)-2-methyl-6-(((1S,2S)-2-(6-methylpyridin-2-yl)cyclopropyl)methoxy) pyridazin-3(2H)-one]

Row | Compound | Ki [nM]
21 | Cc1ncc(CNc2cc(OC[C@H]3C[C@@H]3c3ccn(C)n3)nn(C)c2=O)s1 [Example 2, 2-methyl-6-(((1S,2S)-2-(1-methyl-1H-pyrazol-3-yl)cyclopropyl)methoxy)-4-((2-methylthiazol-5-yl)methylamino)pyridazin-3(2H)-one] | 0.089
22 | 6-(((1S,2S)-2-(5- methoxypyridin-2- yl)cyclopropyl)methoxy)- 2-methyl-4-(((2-methyl- thiazol-4- yl)methyl)amino-)- pyridazin-3(2H)-one [Example 49] | 16.6
23 | COc1ccc([C@H]2C[C@@H]2COc2cc(NCc3cccnc3)c(=O)n(C)n2)nc1 [Example 68, 6-(((1S,25)-2-(5-methoxy-pyridin-2-yl)cyclopropyl-)-methoxy)-2-methyl-4-((pyridin-3-ylmethyl)-amino)pyridazin-3(2H)one] | 11.6
